Measured values reported in PMC4222986 (Journal of neurochemistry, 2014).
Structures can show the parent of a compound that is named as a salt. Where two headings read alike, the source gives them in different places.

How the values were obtained:
[1] = tested on: hD2 and hD3 dopamine receptors expressed in HEK-293 cells; assay: D2 and D3 dopamine receptor combination experiments; format: binding, human; details: radioligand about Kd for hD3, 37°C 30 min, (+)-butaclamol nonspecific
rat striatal tissue = rat striatal tissue (Rattus norvegicus, UniProt P19020); assay: competitive radioligand binding with [3H]LS-3-134, rat striatal tissue; details: Ki values [^3H]LS-3-134 rat striatum, mean ± S.E.M., n ≥ 3, Cheng & Prusoff
[2] = target: rat D3 dopamine receptors (Rattus norvegicus, UniProt P19020); assay: competitive radioligand binding with [3H]LS-3-134, rD3 HEK-293
D3 dopamine receptor = details: forskolin-dependent adenylyl cyclase; ref Tu et al., 2011a; cited from earlier work
D2 dopamine receptor = details: forskolin-dependent adenylyl cyclase; ref Tu et al., 2011a; cited from earlier work
[3] = target: T1, human D2 dopamine receptors (Homo sapiens, UniProt P14416); details: ratio of Ki values of Table I
[4] = target: T1, human D2 dopamine receptors; details: ref Vangveravong et al., 2006; Luedtke et al., 2012; cited from earlier work
[5] = target: T2, human D3 dopamine receptors (Homo sapiens, UniProt P35462); assay: competitive radioligand binding with [3H]LS-3-134, hD3 HEK-293
[6] = target: T2, human D3 dopamine receptors; assay: [125I]IABN radioligand binding, human D3 receptors stably expressed in HEK cells; details: ratio of Ki values of Table I
[7] = target: T2, human D3 dopamine receptors; details: ref Tu et al., 2011a; cited from earlier work
D2 and D3 receptors = details: humans; ref Tziortzi et al., 2011; Payer et al., 2014a,b; cited from earlier work
[8] = Ki values [^3H]LS-3-134 rD3-HEK 293, mean ± S.E.M., n ≥ 3, Cheng & Prusoff

T2 sequence (P35462 whole entry): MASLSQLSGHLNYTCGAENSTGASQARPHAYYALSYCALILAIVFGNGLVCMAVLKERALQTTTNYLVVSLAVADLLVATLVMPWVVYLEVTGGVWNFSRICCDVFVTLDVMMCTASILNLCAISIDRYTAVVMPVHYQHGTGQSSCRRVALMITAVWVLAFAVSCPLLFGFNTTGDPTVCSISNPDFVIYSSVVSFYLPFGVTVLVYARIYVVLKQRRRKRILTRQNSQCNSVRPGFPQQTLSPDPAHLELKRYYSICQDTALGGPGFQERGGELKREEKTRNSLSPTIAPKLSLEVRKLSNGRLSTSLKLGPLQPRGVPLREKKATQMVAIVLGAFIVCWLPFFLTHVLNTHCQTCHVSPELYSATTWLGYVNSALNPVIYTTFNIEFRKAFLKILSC
T1 sequence (P14416 whole entry): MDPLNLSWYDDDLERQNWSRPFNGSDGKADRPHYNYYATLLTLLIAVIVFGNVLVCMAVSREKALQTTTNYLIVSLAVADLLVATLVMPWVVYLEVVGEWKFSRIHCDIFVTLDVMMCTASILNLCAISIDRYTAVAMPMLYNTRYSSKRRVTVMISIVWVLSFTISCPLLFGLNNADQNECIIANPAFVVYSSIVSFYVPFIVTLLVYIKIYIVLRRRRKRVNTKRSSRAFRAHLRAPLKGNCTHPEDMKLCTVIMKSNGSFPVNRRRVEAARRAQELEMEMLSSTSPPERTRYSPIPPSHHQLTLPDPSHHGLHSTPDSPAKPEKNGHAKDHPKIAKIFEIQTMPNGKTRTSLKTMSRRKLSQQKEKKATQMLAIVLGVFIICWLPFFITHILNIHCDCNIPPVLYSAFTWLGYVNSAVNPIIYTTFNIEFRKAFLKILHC
Chain of rat D3 dopamine receptors (P19020 whole entry): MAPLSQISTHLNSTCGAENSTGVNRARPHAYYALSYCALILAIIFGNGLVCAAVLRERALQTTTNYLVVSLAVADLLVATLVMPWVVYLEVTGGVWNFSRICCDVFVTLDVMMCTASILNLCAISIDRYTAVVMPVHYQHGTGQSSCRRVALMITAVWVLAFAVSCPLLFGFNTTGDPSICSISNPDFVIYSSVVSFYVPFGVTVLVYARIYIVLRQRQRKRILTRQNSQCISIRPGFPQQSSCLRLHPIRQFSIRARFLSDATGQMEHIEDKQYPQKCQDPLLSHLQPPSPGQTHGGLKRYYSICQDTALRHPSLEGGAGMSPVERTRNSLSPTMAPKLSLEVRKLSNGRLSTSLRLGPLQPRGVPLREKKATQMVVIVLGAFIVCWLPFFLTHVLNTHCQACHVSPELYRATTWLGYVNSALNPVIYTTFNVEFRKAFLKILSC
Chain of rat striatal tissue (P19020 whole entry): as above

SMILES: CCN1CCC[C@H]1CNC(=O)c1c(O)c(Cl)cc(Cl)c1OC (racemic) [[^3H]raclopride]
- specific binding on adding increasing amounts of hD2 membranes to constant hD3 [1]: increased specific binding was observed

SMILES: CCc1cc(Cl)c(OC)c(C(=O)NC[C@@H]2CCCN2CC)c1O [Eticlopride, S-(−)-3-chloro-5-ethyl-N-[(1-ethyl-2-pyrrolidinyl)methyl]-6-hydroxy-2-methoxybenzamide hydrochloride]
- Ki (rat striatal tissue): 0.37 ± 0.09 nM
- Ki [2, 8]: 0.12 ± 0.05 nM

SMILES: O=C(NCCCCN1CCN(c2ccccc2OCCF)CC1)c1ccc(-c2ccsc2)cc1 [LS-3-134]
- % of full agonist activity at D3 (D3 dopamine receptor): 35%
- % of full agonist activity at D2 (D2 dopamine receptor): 29%

SMILES: COc1ccc2[nH]cc(CN3CCC(O)(c4ccc(SC)cc4)CC3)c2c1 [SV 293, 1-((5-methoxy-1H-indol-3-yl)methyl)-4-(4-(methylthio)phenyl)piperidin-4-ol]
- Binding Selectivity D3:D2 [3]: 105
- Binding Selectivity D4:D2 [3]: 103
- Ki (rat striatal tissue): 323 ± 49.1 nM
- selectivity for hD2 dopamine receptors compared to hD3 [4]: 100 fold
- Ki ([5]; Ki values [^3H]LS-3-134 hD3-HEK 293, mean ± S.E.M., n ≥ 3, Cheng & Prusoff): 324 ± 39.2 nM
- Ki [2, 8]: 892 ± 44.2 nM

SMILES: COc1ccccc1N1CCN(CCCCNC(=O)c2ccc(N(C)C)cc2)CC1 [WC 10, 4-(dimethylamino)-N-(4-(4-(2-methoxyphenyl)piperazin-1-yl)butyl)benzamide]
- Ki (rat striatal tissue): 2.46 ± 0.19 nM
- Ki [5]: 1.25 ± 0.36 nM
- Ki [2]: 5.71 ± 0.81 nM
- Binding Selectivity D2:D3 [6]: 43
- Binding Selectivity D4:D3 [6]: 1120
- D3 vs. D2 dopamine receptor subtype binding selectivity [7]: 43 fold

SMILES: CCCN1CCO[C@@H]2c3cc(O)ccc3CC[C@H]21 [[^11C](+)-PHNO]
- receptors labelled in PET imaging (D2 and D3 receptors): label both D2 and D3 receptors

SMILES: COc1cc([125I])cc(C(=O)NC2CC3CCCC(C2)N3Cc2ccccc2)c1OC (stereo not shown) [[^125I]IABN]
- specific binding on adding increasing amounts of hD2 membranes to constant hD3 [1]: increased specific binding was observed
